Experiments:
Thermoanalysis (DSC/TG) = assay type: physicochemical; details: heating rate 10 K/min, crystalline form (FIG. 2)
Experimental: Thermoanalysis (DSC/TG Diagram, FIG. 2)
Technical Data Relating to the Thermoanalytical DSC Device Used:
DSC 822 made by Mettler Toledo; heating rate: 10 K/min; type of crucible: perforated aluminium crucible; atmosphere: N2, 80 ml/min flux; weight: 3-10 mg.
Technical Data Relating to the Thermoanalytical TG Device Used:
TGA/SDTA 851 Made by Mettler Toledo with IR coupling (Nicolet FT-IR 4700) for analysing the volatile fractions driven off; heating rate: 10 K/min; type of crucible: open aluminium oxide crucible; atmosphere: N2, 20 ml/min flux; weight: 15-25 mg.

[1] = Sorption profile (DVS sorption balance), hygroscopic characteristics; assay type: physicochemical; details: relative humidity range between 10-90%; crystalline form
Experimental: Sorption Profile (DSV Diagram, Kinetic & Isothermic Plot, FIG. 3)
Technical Data Relating to the Sorption Balance Used:
DVS-1 made by Surface Measurement Systems (=SMS) for analysing the hygroscopic characteristics; humidity profile of 10-90% r.h. In 10% steps, recording both a sorption and a desorption profile, weight: 10-20 mg

Compound: CCC1(CC)OC(=O)N(CCC(C)(C)NC[C@H](O)c2ccc(O)c(NS(C)(=O)=O)c2)c2ccccc21 [compound 1, N-(5-{(R)-2-[3-(4,4-diethyl-2-oxo-4H-benzo[d][1,3]oxazin-1-yl)-1,1-dimethyl-propylamino]-1-hydroxy-ethyl}-2-hydroxy-phenyl)-methanesulphonamide]
- thermally stable at a thermal load of up to (Thermoanalysis (DSC/TG)): up to 210 °C
- water absorption [1]: less than 0.5 wt. %

Source: patent publication US8394791B2, “Crystalline, enantiomerically pure salt form of a beta-agonist, and the use thereof as a drug” (Boehringer Ingelheim International GmbH, priority 2008, dated 2013)
